Experiments:
CRF receptor = molecular target: T1, CRF receptor (Rattus norvegicus, UniProt P35353); assay: In vitro CRF receptor binding assay (competition with [125I] ovine CRF, rat cortex membranes); conditions: read-out: Inhibition Ki
T1 construct: 100 μl of membrane suspension as prepared above to give a total reaction volume of 300 μl; from tissue; host or cells: rat cerebral cortex membrane homogenate
T1 sequence (P35353 24-415): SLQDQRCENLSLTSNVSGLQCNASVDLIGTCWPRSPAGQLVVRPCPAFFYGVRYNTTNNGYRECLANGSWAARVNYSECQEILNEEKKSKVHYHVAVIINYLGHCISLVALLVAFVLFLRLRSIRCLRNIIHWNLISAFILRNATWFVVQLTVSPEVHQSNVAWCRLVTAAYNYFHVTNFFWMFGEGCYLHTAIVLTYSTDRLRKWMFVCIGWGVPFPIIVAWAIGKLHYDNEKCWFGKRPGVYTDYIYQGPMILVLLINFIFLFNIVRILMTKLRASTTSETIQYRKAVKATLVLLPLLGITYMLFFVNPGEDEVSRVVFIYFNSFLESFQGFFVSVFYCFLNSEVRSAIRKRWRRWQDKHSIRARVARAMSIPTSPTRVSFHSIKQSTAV

| melting point | Ki (CRF receptor) | SMILES |
| --- | --- | --- |
| 186 to 187 °C | < 0.5 µM | Cc1cc(N2CCCCC2)nc(N(C)c2ccc(C(C)C)cc2Br)n1 [compound 195] |
| 150 to 151 °C | < 0.5 µM | CCCN(c1nc(C)cc(C)n1)c1ccc(C(C)C)cc1Br [compound 196] |
| 159 to 160 °C | 0.501 to 2 µM | CCCCN(c1nc(C)cc(C)n1)c1ccc(C(C)C)cc1Br [compound 197] |
| 105.8 °C | < 0.5 µM | Cc1cc(C)c2c(C#N)cn(-c3ccc(C(C)C)cc3Br)c2n1 [Example 254] |
| 194 to 195 °C | < 0.5 µM | Cc1cc(N2CCSCC2)nc(Nc2c(Br)cc(C(C)C)cc2Br)n1 [compound 166, N-(2,6-dibromo-4-(1-methylethyl)phenyl)4-thiomorpholino-6-methyl-2-pyrimidinamine] |
| 123.8 °C | < 0.5 µM | Cc1cc(Cl)nc2c1c(C#N)cn2-c1ccc(C(C)C)cc1Br [Example 262] |
| 61 to 63 °C | < 0.5 µM | CCN(c1nc(C)cc(N2CCN(C=O)CC2)n1)c1ccc(C(C)C)cc1Br [compound 25] |
| 136 to 138 °C | < 0.5 µM | CCN(c1nc(C)cc(C(=O)c2ccco2)n1)c1ccc(C(C)C)cc1Br [compound 288] |
| 107 to 108 °C | 0.501 to 2 µM | CCN(c1nc(C)cc(C(=O)N2CCCCC2)n1)c1ccc(C(C)C)cc1Br [compound 60] |
| 104 to 106 °C | 0.501 to 2 µM | CCN(c1nc(C)cc(C(=O)c2ccc(OC)cc2)n1)c1ccc(C(C)C)cc1Br [compound 287] |
| 174 to 176 °C | < 0.5 µM | CCN(c1nc(C)cc(C)n1)c1ccc(C(C)C)cc1S(C)(=O)=O [compound 174, N-(2-methylsulfonyl-4-(1-methylethyl)phenyl)-N-ethyl-4,6-dimethyl-2-pyrimidinamine] |
| 165 to 167 °C | < 0.5 µM | CCN(c1nc(C)cc(C(=O)c2cccnc2)n1)c1ccc(C(C)C)cc1Br [compound 284] |
| 211 to 212 °C | < 0.5 µM | CCc1cc(N2CCCCC2)nc(N(C)c2ccc(C(C)C)cc2Br)n1 [compound 194] |
| 70 to 72 °C | < 0.5 µM | CCN(c1nc(C)nc(N2CCSC2)n1)c1ccc(C(C)C)cc1Br [compound 241] |
| 80 to 82 °C | < 0.5 µM | CCN(c1nc(C)cc(C(=O)N(C)C)n1)c1ccc(C(C)C)cc1Br [compound 282] |
| 64 to 66 °C | < 0.5 µM | CCN(c1nc(C)cc(C)n1)c1ccc(C(C)C)cc1SC [compound 168, N-(2-methylthio-4-(1-methylethyl)phenyl)-N-ethyl-4,6-dimethyl-2-pyrimidinamine] |
| 171 to 173 °C | < 0.5 µM | CCN(c1nc(C)cc(C(=O)c2cc[nH]n2)n1)c1ccc(C(C)C)cc1Br [compound 286] |
| 119 to 120 °C | < 0.5 µM | Cc1cc(N2CCCC2)nc(N(C)c2ccc(C(C)C)cc2Br)n1 [compound 193] |

The remaining lines, values behind:

| SMILES | melting point | Ki (CRF receptor) |
| --- | --- | --- |
| COc1cc(Br)c(Nc2nc(C)cc(C)n2)c(OC)c1 [compound 203] | 177 to 179 °C | 0.501 to 2 µM |
| CCN(c1nc(C)cc(C)n1)c1ccc(N(C)C)cc1SC [compound 191, N-(4-(N,N-dimethylamino)-2-methylthiophenyl)-N-ethyl-4,6-dimethyl-2-pyrimidinamine] | 119 to 120 °C | < 0.5 µM |
| CCN(c1nc(C)cc(C)n1)c1c(OC)cc(OC)cc1OC [compound 15] | 115 to 116 °C | < 0.5 µM |
| CCN(c1nc(C)cc(C)n1)c1c(Br)cc(OC)cc1Br [compound 226] | 101 to 103 °C | < 0.5 µM |
| CCN(c1nc(C)cc(C)n1)c1ccc(OC)cc1SC [compound 185, N-(4-methoxy-2-methylthiophenyl)-N-ethyl-4,6-dimethyl-2-pyrimidinamine] | 128 to 130 °C | < 0.5 µM |
| COc1ccc(Nc2nc(C)cc(C)n2)c(Br)c1 [compound 204] | 118 to 119 °C | 2 to 10 µM |
| CCN(c1nc(C)cc(C)n1)c1ccc(NC)cc1SC [compound 190, N-(4-(N-methylamino)-2-methylthiophenyl)-N-ethyl-4,6-dimethyl-2-pyrimidinamine] | 141 to 142 °C | < 0.5 µM |
| CCOC(=O)N1CCN(c2nc(C)nc(N(CC)c3c(Br)cc(OC)cc3OC)n2)CC1 [compound 244] | 65 to 70 °C | 2 to 10 µM |
| CCN(c1nc(C)cc(C(=O)NC2CCCCC2)n1)c1ccc(C(C)C)cc1Br [compound 62] | 115 °C | 0.501 to 2 µM |
| C=CCN(c1nc(C)cc(N2CCOCC2)n1)c1ccc(C(C)C)cc1I [compound 165, N-(2-iodo4-(1-methylethyl)phenyl)-N-allyl4-morpholino-6-methyl-2-pyrimidinamine] | 109 to 112 °C | < 0.5 µM |
| C=CCN(c1nc(C)cc(C)n1)c1c(Br)cc(OC)cc1OC [compound 205] | 88 to 90 °C | < 0.5 µM |
| CCN(c1nc(C)cc(C(=O)N2CCN(c3ccccc3OC)CC2)n1)c1ccc(C(C)C)cc1Br [compound 268] | 57 to 60 °C | < 0.5 µM |
| COc1cc(Br)c(Nc2nc(C)cc(C)n2)c(Br)c1 [compound 223] | 175 to 177 °C | 0.501 to 2 µM |
| CCN(c1nc(C)cc(C)n1)c1ccc(C#N)cc1SC [compound 186, N-(4-cyano-2-methylthiophenyl)-N-ethyl-4,6-dimethyl-2-pyrimidinamine] | 99 to 100 °C | < 0.5 µM |
| CCc1ccc(N(c2nc(C)cc(C)n2)C(C)C)c(SC)c1 [compound 181, N-(4-ethyl-2-methylthiophenyl)-N-(1-methylethyl)4,6-dimethyl-2-pyrimidinamine] | 85 to 87 °C | < 0.5 µM |
| COc1cc(OC)c(N(C)c2nc(C)cc(C)n2)c(OC)c1 [compound 14] | 145 to 146 °C | 0.501 to 2 µM |
| CCN(c1nc(C)nc(N2CCOCC2)n1)c1c(Br)cc(OC)cc1OC [compound 237] | 90 to 95 °C | < 0.5 µM |

| SMILES | melting point | Ki (CRF receptor) |
| --- | --- | --- |
| CCN(c1nc(C)cc(C)n1)c1ccccc1Br [compound 5] | 94 to 95 °C | 0.501 to 2 µM |
| CCN(c1nc(C)cc(C)n1)c1ccc(C(C)=O)cc1SC [compound 187, N-(4-acetyl-2-methylthiophenyl)-N-ethyl-4,6-dimethyl-2-pyrimidinamine] | 125 to 126 °C | < 0.5 µM |
| CCN(c1nc(C)cc(C)n1)c1ccc(OC)cc1OC [compound 7] | 120 to 121 °C | < 0.5 µM |
| CCN(c1nc(C)cc(C(=O)N2CCN(c3ncccn3)CC2)n1)c1ccc(C(C)C)cc1Br [compound 273] | 114 to 116 °C | 0.501 to 2 µM |
| CCOc1cc(Br)c(Nc2nc(C)cc(C)n2)c(Br)c1 [compound 228] | 165 to 167 °C | 0.501 to 2 µM |
| CCN(c1nc(C)nc(Oc2ccccc2)n1)c1ccc(C(C)C)cc1Br [compound 243] | 140 to 142 °C | 2 to 10 µM |
| CCOc1cc(Br)c(N(CC)c2nc(C)cc(C)n2)c(Br)c1 [compound 224, N-(2,6-Dibromo-4-(ethoxy)phenyl)-N-ethyl-4,6-dimethyl-2-pyrimidinamine] | 107 to 108 °C | < 0.5 µM |
| CCN(c1nc(C)cc(C)n1)c1ccc(CCO)cc1Br [compound 64, N-(2-Bromo-4-(2-hydroxyethyl)phenyl)-N-ethyl-4,6-dimethyl-2-pyrimidinamine] | 58 to 60 °C | 2 to 10 µM |
| Cc1ccc(N(C)c2nc(C)cc(N3CCOCC3)n2)c(Br)c1 [compound 6] | 40 to 42 °C | 0.501 to 2 µM |
| CCN(c1nc(C)cc(C)n1)c1c(Cl)cc(OC)cc1OC [compound 141] | 99 to 102 °C | < 0.5 µM |
| CCN(c1nc(C)cc(C)n1)c1c(O)cc(OC)cc1Br [compound 230, N-(2-Bromo-6-hydroxy-4-methoxyphenyl)-N-ethyl-4,6-dimethyl-2-pyrimidinamine] | 157 to 160 °C | < 0.5 µM |
| CCN(c1nc(C)cc(C)n1)c1ccc(Br)cc1SC [compound 180, N-(4-bromo-2-methylthiophenyl)-N-ethyl-4,6-dimethyl-2-pyrimidinamine] | 91 to 93 °C | < 0.5 µM |
| CCC(=O)c1ccc(N(CC)c2nc(C)cc(C)n2)c(SC)c1 [compound 188, N-(4-propionyl-2-methylthiophenyl)-N-ethyl-4,6-dimethyl-2-pyrimidinamine] | 139 to 141 °C | < 0.5 µM |
| CCN(c1nc(C)cc(C)n1)c1ccc(N(C)C(C)=O)cc1SC [compound 183, N-(2-methylthio-4-(N-acetyl-N-methylamino)phenyl)-N-ethyl-4,6-dimethyl-2-pyrimidinamine] | 158 to 160 °C | 2 to 10 µM |
| CCN(c1nc(C)cc(C(O)(c2ccc(OC)cc2)c2ccc(OC)cc2)n1)c1ccc(C(C)C)cc1Br [compound 289] | 63 to 65 °C | < 0.5 µM |
| CCN(c1nc(C)cc(C)n1)c1cc(Br)c(OC)cc1OC [compound 253, N-(3-Bromo-4,6-dimethoxyphenyl)-N-ethyl-4,6-dimethyl-2-pyrimidinamine] | 143 to 145 °C | 0.501 to 2 µM |
